Reference: patent US20030032579A1, “Therapeutic use of selective PDE10 inhibitors” (Pfizer Inc., priority 2001, published 2003)
Values joined by “and” are separate entries in the source; they are usually repeats but may differ in a detail not shown here. Equal entries are not always repeated.

Assays:
[1] = tested on: primary cultures of rat striatal neurons (medium spiny neurons); assay: cGMP accumulation in SNP-stimulated striatal cultures (Example 2); type: cell-based; settings: for cGMP EC200: SNP-stimulated rat striatal cultures, mean ± S.E.M.
Experimental: (§1) The striatal cultures were prepared as previously described (Ventimiglia et al., Eur. J. Neurosci. 7: 213-222, 1995). Briefly, striata (caudate nucleus and putamen) are dissected from E17 rats, were dissociated to produce a single cell suspension and plated at a density of 5×10^4 neurons/well in multiwell plates coated with poly-L-ornithine/laminin. The cells were plated in Neurobasal medium with B27 supplements and BDNF (100 ng/mL). Experiments were typically performed after 4 days in vitro. Medium spiny neurons comprise the majority of cells in these cultures (50 to 60%, as confirmed by GABA immunoreactivity).
(§2) The striatal cells were exposed to phosphodiesterase inhibitors and incubated for twenty minutes at 37 degrees Celsius. When measuring cGMP, the neurons were stimulated with sodium nitroprusside, a nitric oxide source for two minutes following the 20-minute incubation with compound. When measuring cAMP, the neurons were stimulated with forskolin, an activator of adenylate cyclase for the duration of the twenty minute compound incubation. The cells were lysed using a 9:1 combination of cAMP SPA direct screening Assay Buffer (0.05M acetate with 0.01% sodium azide) and Buffer A (133 mg/mL dodecyltrimethylammonium bromide) and the lysates were frozen on dry ice. A cGMP [[…]] or cAMP [[…]] scintillation proximity assay (SPA) system (Amersham code RPA 540 and RPA 559, respectively) was used to detect the concentration of the respective cyclic nucleotide in the cell lysate.
(§3) We therefore examined the effects of the compound under conditions in which cAMP or cGMP synthesis was stimulated with forskolin or the NO donor sodium nitroprusside (SNP), respectively.

[2] = tested on: primary cultures of rat striatal neurons (medium spiny neurons); assay: cAMP accumulation in forskolin-stimulated striatal cultures (Example 2); type: cell-based; settings: for cAMP EC200: forskolin-stimulated rat striatal cultures, mean ± S.E.M.; for cAMP/cGMP (ratio of EC200 values): rat striatal cultures, Example 2
Experimental: as §1, §2, §3

PDE9 = molecular target: T1, PDE9 (Homo sapiens, UniProt O76083); assay: PDE inhibition, SPA cyclic nucleotide hydrolysis assay; type: biochemical
T1 construct: made in house; host or cells: SF9 cells
T1 sequence (O76083 whole entry): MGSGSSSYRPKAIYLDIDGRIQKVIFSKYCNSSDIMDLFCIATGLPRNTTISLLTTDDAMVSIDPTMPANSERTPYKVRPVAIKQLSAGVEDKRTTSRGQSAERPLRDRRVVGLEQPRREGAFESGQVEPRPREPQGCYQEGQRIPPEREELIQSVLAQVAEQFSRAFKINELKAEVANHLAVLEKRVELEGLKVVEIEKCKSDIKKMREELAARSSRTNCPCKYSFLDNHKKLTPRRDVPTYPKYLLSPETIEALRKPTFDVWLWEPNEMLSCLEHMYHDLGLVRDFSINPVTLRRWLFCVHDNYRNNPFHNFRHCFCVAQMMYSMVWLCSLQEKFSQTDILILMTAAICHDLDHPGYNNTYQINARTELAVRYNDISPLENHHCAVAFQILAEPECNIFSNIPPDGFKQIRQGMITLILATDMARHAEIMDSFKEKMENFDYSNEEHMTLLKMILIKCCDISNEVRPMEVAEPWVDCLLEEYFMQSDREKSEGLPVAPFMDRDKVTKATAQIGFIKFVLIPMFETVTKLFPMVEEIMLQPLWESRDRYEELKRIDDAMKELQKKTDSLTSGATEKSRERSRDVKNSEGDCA
Experimental: (§8) In one assay, a substance is screened for inhibition of cyclic nucleotide hydrolysis by the PDE10 and the PDEs from the other gene families. The cyclic nucleotide substrate concentration used in the assay of each individual PDE is ⅓ of the Km concentration, allowing for comparisons of IC50 values across the different enzymes. PDE activity is measured using a Scintillation Proximity Assay (SPA)-based method as previously described (Fawcett et al., 2000). The effect of PDE inhibitors is determined by assaying a fixed amount of enzyme (PDEs 1-11) in the presence of varying substance concentrations and low substrate, such that the IC50 approximates the Ki (cGMP or cAMP in a 3:1 ratio unlabelled to [^3H]-labeled at a concentration of ⅓ Km). The final assay volume is made up to 100 μl with assay buffer [20 mM Tris-HCI pH 7.4, 5 mM MgCl2, 1 mg/ml bovine serum albumin]. […] Plates are re-sealed and shaken for 20 min, after which the beads were allowed to settle for 30 min in the dark and then counted on a TopCount plate reader (Packard, Meriden, Conn.). […]
(§9) PDE activity was measured using the assay with yttrium silicate SPA beads described above in the Detailed Description section.

PDE11 = molecular target: T2, PDE11 (Homo sapiens, UniProt Q9HCR9); assay: as above; type: biochemical
T2 construct: made in house; host or cells: SF9 cells
T2 sequence (Q9HCR9 445-933): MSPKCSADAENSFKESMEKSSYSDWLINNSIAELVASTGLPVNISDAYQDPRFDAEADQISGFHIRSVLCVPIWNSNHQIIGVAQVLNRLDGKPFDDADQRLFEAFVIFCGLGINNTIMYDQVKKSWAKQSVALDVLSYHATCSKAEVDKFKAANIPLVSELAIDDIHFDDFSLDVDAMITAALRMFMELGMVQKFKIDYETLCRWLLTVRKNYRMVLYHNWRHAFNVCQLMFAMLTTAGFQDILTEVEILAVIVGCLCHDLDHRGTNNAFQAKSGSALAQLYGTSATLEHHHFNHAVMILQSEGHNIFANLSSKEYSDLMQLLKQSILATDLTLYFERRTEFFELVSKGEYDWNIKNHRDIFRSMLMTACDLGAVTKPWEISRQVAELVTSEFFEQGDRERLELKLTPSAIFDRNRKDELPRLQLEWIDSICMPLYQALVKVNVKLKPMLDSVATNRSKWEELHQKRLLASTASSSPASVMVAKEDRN
Experimental: as §8, §9

Sprague-Dawley rats = assay: Locomotor activity (shuttle box crossovers), PCP- or amphetamine-stimulated; type: in vivo, rat
Experimental: Adult, male, Sprague-Dawley rats (250-300 g) were obtained from Charles River (Wilmington, Mass.). Locomotor activity was assessed using crossover behavior in commercially available shuttle boxes (Coulbourn Instruments, Allentown, Pa.). Data was collected in 5 minute intervals for 1 hour after drug administration. Animals received either vehicle (5% DMSO, 5% Emulphor, 90% Saline) phencyclidine (PCP, Sigma Chem. Co.) or amphetamine Sulfate (RBI) followed immediately by either vehicle or test compound. Statistical analysis was performed using the Student's t-test.

PDE10 = molecular target: T3, PDE10 (Rattus norvegicus, UniProt Q9QYJ6); assay: PDE inhibition, SPA cyclic nucleotide hydrolysis assay; type: biochemical
T3 construct: made in house; host or cells: SF9 cells
T3 sequence (Q9QYJ6 1-794): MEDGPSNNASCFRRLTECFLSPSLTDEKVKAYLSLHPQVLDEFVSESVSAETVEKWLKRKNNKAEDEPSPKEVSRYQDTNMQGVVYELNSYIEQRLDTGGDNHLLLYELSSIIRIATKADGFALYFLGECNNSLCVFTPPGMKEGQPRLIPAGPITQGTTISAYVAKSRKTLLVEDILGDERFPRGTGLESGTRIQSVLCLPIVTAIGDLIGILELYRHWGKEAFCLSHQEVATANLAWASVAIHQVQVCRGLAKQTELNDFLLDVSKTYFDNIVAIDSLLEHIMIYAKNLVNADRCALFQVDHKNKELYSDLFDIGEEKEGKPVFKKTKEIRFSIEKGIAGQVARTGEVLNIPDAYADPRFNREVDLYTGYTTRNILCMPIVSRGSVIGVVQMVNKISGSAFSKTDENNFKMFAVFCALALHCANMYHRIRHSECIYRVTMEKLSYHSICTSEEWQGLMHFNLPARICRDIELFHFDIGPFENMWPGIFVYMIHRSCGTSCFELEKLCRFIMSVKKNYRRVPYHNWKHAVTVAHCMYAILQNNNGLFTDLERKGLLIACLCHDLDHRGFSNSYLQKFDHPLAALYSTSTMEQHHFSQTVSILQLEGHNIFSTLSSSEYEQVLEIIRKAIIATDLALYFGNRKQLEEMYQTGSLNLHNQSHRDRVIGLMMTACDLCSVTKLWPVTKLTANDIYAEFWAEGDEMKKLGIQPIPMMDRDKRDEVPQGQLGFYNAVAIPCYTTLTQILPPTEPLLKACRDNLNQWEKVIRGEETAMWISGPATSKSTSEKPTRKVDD

[3] = tested on: primary cultures of rat striatal neurons (medium spiny neurons); assay: cGMP accumulation in SNP-stimulated striatal cultures (Example 2); type: cell-based; settings: compound alone, no stimulus
male CD rats = assay: Catalepsy (bar test), alone and with haloperidol; type: in vivo, rat; settings: s.c.; for catalepsy when administered alone: 30 min after dosing, papaverine up to 32 mg/kg
From the text: This animal model is used to analyze the effects of compounds on basal ganglia output. […] For some experiments, this was immediately followed by haloperidol. Thirty minutes after drug administration(s), the degree of catalepsy was quantified by placing the animals forepaws on an elevated (10 cm) bar (1 cm diameter) and determining the latency to remove both forepaws from the bar with a latency cutoff of 30 sec. Latencies were ranked within each treatment group for comparison by a Kruskall-Wallace analysis of variance. Post hoc analysis was by the Mann Whitney U test.

[4] = tested on: primary cultures of rat striatal neurons (medium spiny neurons); assay: cAMP accumulation in forskolin-stimulated striatal cultures (Example 2); type: cell-based; settings: compound alone, no stimulus
PDE1 = tested on: T4, PDE1; assay: PDE inhibition, SPA cyclic nucleotide hydrolysis assay; type: biochemical, human; settings: substrate at 1/3 Km
T4 construct: other: substrate at 1/3 Km
From the text: (§4) PDEs 2, 3 and 5, isozymes, including human PDEs, can, for example, be prepared from corpus cavernosum; PDE1, isozymes including human, from cardiac ventricle; and PDE4, isozymes, including human, from skeletal muscle. PDE6 can be prepared, for example, from canine retina. Description of enzyme preparation from native tissue is described, for example, by Boolell, M. et al., Int. J. Impotence Research 8:7-52, 1996, incorporated herein by reference.
(§5) PDEs 7-11 can similarly be prepared from native tissue. Isozymes from the PDEs 7-9 and 11 families can alternatively be generated from full length human recombinant clones transfected into, for example, SF9 cells as described in Fisher, D. A., et al., Biochem. Biophys. Res. Comm. 246, 570-577, 1998; Soderling, S. H. et al., PNAS 96: 7071-7076, 1999; Fisher, D. A. et al., J. Biol. Chem. 273, 15559-15564, 1998b; and Fawcett, L., et al., PNAS 97: 3702-3707, 2000; respectively. PDE10 can also be generated from a rat recombinant clone transfected into SF9 cells (Fujishige et al., European Journal of Biochemistry, Vol. 266, 1118-1127 (1999)). The enzymes are then prepared by FPLC from the soluble fraction of cell lysates as described for PDE6. The aforementioned references are incorporated in their entireties herein by reference. […]

PDE7 = tested on: T5, PDE7; assay: as above; type: biochemical, human; settings: substrate at 1/3 Km
T5 construct: other: substrate at 1/3 Km
From the text: as §4, §5

medium spiny neurons [5] = assay: CREB phosphorylation in medium spiny neurons, Western blot; type: cell-based, rat; settings: Western blotting
Experimental: (§6) Medium spiny neuron cultures were prepared as discussed in Example 2 from striata from E17 or E18 rat embryos. The striata were digested with trypsin and the dissociated cells plated on poly-L-omithine/laminin coated plates in Neurobasal medium containing B27 supplement. For assays of cyclic nucleotide formation and CREB phosphorylation, neurons are also supplemented with 50 ng/ml BDNF and used at 6 DIV. At this time, approximately 90% of the cells are of neuronal morphology and 50% stain positively for GABA.
cAMP and cGMP activate protein kinases PKA and PKG, respectively. Both kinases are capable of phosphorylating the transcription regulator CREB. We examined the effects of the selective PDE inhibitors in Table 3 on phosphorylation of CREB as a downstream event in the cyclic nucleotide signaling cascade.

medium spiny neurons [6] = assay: cGMP accumulation in SNAP-stimulated medium spiny neuron culture (Example 5); type: cell-based, rat
Experimental: as §6
(§7) The PDE inhibitors were differentiated by the potencies with which they potentiated the increase in cAMP versus cGMP (Table 3).

medium spiny neurons [7] = assay: Differentiation of medium spiny neurons to GABA phenotype, Array Scan; type: cell-based, rat; settings: added at plating, read at 6 DIV
Experimental: The transcriptional events activated following CREB phosphorylation are involved in the survival and differentiation of neurons. We investigated whether the PDE inhibitors in Table 3 effect the survival and differentiation of the medium spiny neurons. These experiments were conducted using a protocol used by Ventimiglia et al. (see Ventimiglia et al., 1995, supra) to assay the effects of BDNF on these processes in medium spiny neurons. Specifically, the PDE inhibitors were added to the medium spiny neuron culture medium at the time of plating, and then at 6 DIV various parameters related to neuronal survival and differentiation were quantified using the Array Scan System from Cellomics, Inc (Pittsburgh, Pa., USA).
Blue-nuclei; Green-neuron; Red-neuron staining positively for GABA.

medium spiny neurons [8] = assay: cAMP accumulation in forskolin-stimulated medium spiny neuron culture (Example 5); type: cell-based, rat
Experimental: as §6, §7

CC(C)Cn1c(=O)n(C)c(=O)c2[nH]cnc21 [IBMX]
cGMP EC200 [1]: 19 μM and 19.5 (1) μM | cAMP EC200 [2]: 30 μM and 30.2 (2) μM | cAMP/cGMP (ratio of EC200 values) [2]: 1.5

COc1ccc(Cc2nccc3cc(OC)c(OC)cc23)cc1OC [Papaverine, 1-[(3,4-dimethoxyphenyl)methyl]-6,7-dimethoxyisoquinoline]
cGMP EC200 [1]: 11.7 μM and 11.7 ± 8.2 (4) μM | maximal elevation of cGMP over cultures stimulated with SNP alone ([1]; at 100 μM): 5 fold | IC50 (PDE9): 400 µM | IC50 (PDE11): 11 µM | cAMP EC200 [2]: 38.3 ± 11.4 (4) μM | locomotor activity, compound alone (Sprague-Dawley rats; 32 mg/kg, i.p., 60 min): small decrease in locomotor activity | amphetamine stimulated locomotion, second experiment (Sprague-Dawley rats; amphetamine 1 mg/kg s.c., 30 minutes): effectively inhibited | locomotor activity stimulated by phencyclidine (Sprague-Dawley rats; papaverine 32 mg/kg i.p., PCP […] i.p., 60 min): significant reduction in the locomotor activity | locomotor activity stimulated by amphetamine (Sprague-Dawley rats; papaverine 32 mg/kg i.p., amphetamine 1 mg/kg i.p., 60 min): without effecting | IC50 (PDE10): 0.018 µM | change in basal level of cGMP [3]: did not produce measurable changes | catalepsy when administered alone (male CD rats): did not alone induce catalepsy | minimum effective dose for potentiation of haloperidol-induced catalepsy (male CD rats; haloperidol […]): 3.2 mg/kg | change in basal level of cAMP [4]: did not produce measurable changes | IC50 (PDE1): 37 µM | IC50 (PDE7): 27 µM

COc1ccc(C2CNC(=O)C2)cc1OC1CCCC1 (stereo not drawn) [Rolipram]
cGMP EC200 [1]: 29.2 ± 10.3 (3) μM | fold higher concentration to double cGMP accumulation than cAMP ([1]; relative to cAMP EC200): 10 fold | cAMP EC200 [2]: 2.5 ± 2.0 (3) μM | cAMP EC200 ([2]; listed as rolipram): 2.5 µM | cAMP/cGMP (ratio of EC200 values) [2]: 0.09 | rank order of efficacy in increasing CREB phosphorylation (medium spiny neurons [5]): forskolin>selective PDE 10 inhibitor>rolipram | CREB phosphorylation (medium spiny neurons [5]; compound without other stimuli): increased CREB phosphorylation | effect on accumulation of cGMP stimulated with SNAP (medium spiny neurons [6]; FIG. 4): potentiate the increase | cGMP EC200 (medium spiny neurons [6]; SNAP-stimulated medium spiny neurons, 6 DIV): 71.1 ± 9.9 µM | change in cGMP level in the absence of a stimulus (medium spiny neurons [6]; no stimulus): no detectable change | number of GABAergic neurons (medium spiny neurons [7]): no effect | effect on accumulation of cAMP stimulated with forskolin (medium spiny neurons [8]; FIG. 3): potentiate the increase | cAMP EC200 (medium spiny neurons [8]; forskolin-stimulated medium spiny neurons, 6 DIV): 2.0 ± 0.2 µM | cAMP/cGMP (ratio of EC200 values) (medium spiny neurons [8]; medium spiny neurons, Example 5): 0.03 | change in cAMP level in the absence of a stimulus (medium spiny neurons [8]; no stimulus): no detectable change

CCCOc1ccccc1-c1nc2nn[nH]c2c(=O)[nH]1 [Zaprinast]
cGMP EC200 [1]: 98.3 ± 10.3 (3) μM | cAMP EC200 [2]: >100 (3) μM | cAMP/cGMP (ratio of EC200 values) [2]: 1

O=C(CCCN1CCC(O)(c2ccc(Cl)cc2)CC1)c1ccc(F)cc1 [haloperidol]
maximally effective dose for catalepsy (male CD rats): 1 mg/kg | catalepsy when administered alone (male CD rats): robust catalepsy
